A short description of series [1]: Circular dichroism, heparin-induced coil-to-helix transition (ellipticity at 222 nm). Conditions: CD, peptide 0.05 mg/mL, 2.9 mL sample, 1 cm path; titration of low molecular weight heparin (enoxaparin) up to 1.5 mg; data collected in triplicate. It counts as physicochemical. As for the experimental part:
CD spectra were obtained for all peptides (0.05 mg/mL in PBS) using a DSM 1000 CD instrument (Olis Inc., Bogart, Georgia) with a peptide sample volume of 2.9 mL and a 1 cm cuvette path length. Data were collected in triplicate over the 190–250 nm wavelength range with 1 nm increments. Increasing amounts of low molecular weight heparin (Enoxaparin sodium, Sanofi, Bridgewater, NJ) up to 1.5 mg was added to each peptide to induce secondary structure transitions. All data were corrected for background by subtraction of a PBS or PBS with enoxaparin CD spectrum. Mean residue ellipticity [Θ] was calculated according to: Θ *(MW/no. AA)/(10 *conc. *l) where: Θ is ellipticity (millidegrees); MW is the molecular weight of the peptide (3356.8 Da); no. AA, is the number of amino acid residues, (31); conc. is the peptide concentration (mg/mL), and l, is the cuvette path length (cm).
A general note: Circular dichroism is widely used to follow secondary structure.

The conditions of series [2]: mouse, in vivo, iv. As for the experimental part: Peptides (20–40 μg) were radiolabeled with iodine-125 (^125I; Perkin Elmer, Waltham, MA) as previously described. Briefly, ~ 2 mCi of ^125I in buffered sodium phosphate pH 7.6 was mixed with peptide and 20 μg chloramine T in a volume of 10 µL water for 1 min. The reaction was quenched using 20 μg sodium metabisulphite in 10 µL water. Radiolabeled product was separated from free isotope by gel filtration chromatography using a Sephadex G-25 size-exclusion matrix (PD10; GE Healthcare) equilibrated with 0.1% gelatin/PBS. Fractions were collected manually and radioactivity in each measured by gamma counting after which the peak fractions were pooled. Radiochemical purity was assessed qualitatively by estimating the free radioiodide from phosphor images (Cyclone Storage Phosphor System, PerkinElmer, Shelton, CT) of SDS-PAGE gels. SPECT/CT imaging was performed as described previously. […] Low energy (^125I; 25–45 keV) gamma photons were detected at each of 60, 16-s projections with 90 mm of bed travel in 1.5 revolutions. […] A small piece of each tissue was weighed in tared vials and radioactivity quantified using an automated gamma counter (1480 Wizard 3 Gamma Counter, Perkin Elmer). The tissue radioactivity data were expressed as % injected dose per gram of tissue (%ID/g). […]

As for “aqaYS KAQKAQAKQAKQAQKAQKAQAKQAKQ [^aqap5, 31-residue p5 variant with three D-amino acids at the N-terminus; tested 125I-labeled in vivo]”, the “half maximal value of the heparin-mediated transition in mean residue ellipticity at 222 nm” value in series [1] is 0.33 mg. Also, the “radioactivity in the kidneys” value in series [2] is reported as ~ 39 %ID/g.
